These results are taken from US20200271654A1, “Quantifying MGMT Protein For Optimal Cancer Therapy” (Expression Pathology, Inc., priority 2017, published 2020).

This assay relates to advanced colorectal cancer (CRC). As to the kind of experiment: Survival of advanced colorectal cancer patients treated with temozolomide, stratified by tumor MGMT protein level (SRM mass spectrometry). Conditions: for median progression-free survival (PFS): treated with temozolomide. Type of assay: in vivo. An excerpt: 24 patients from Fondazione IRCCS Istituto Nazionale dei TumoriVia Venezian, Milan, Italy, were identified with advanced colorectal cancer (CRC). Tumors were surgically removed prior to treatment and archived as formalin-fixed, paraffin-embedded (FFPE) tissue and all were histologically colorectal cancer. All 24 patients were subsequently treated with temozolomide.
Archived formalin-fixed, paraffin-embedded tissue sections were obtained from patients with advanced CRC treated with temozolomide (n=24). A board-certified pathologist marked the tumor areas. Based on the markups, tumor cells were laser microdissected and solubilized to tryptic peptides using the Liquid Tissue process. In each liquefied sample, multiple protein biomarkers including MGMT were quantified by selected reaction monitoring (SRM) mass spectrometry (MS). A mixture of stable isotope-labeled heavy peptides including the MGMT fragment peptide TTLDSPLGK was added prior to MS analysis. Each sample was analyzed in triplicate. […] The Mantel-Cox log-rank and Gehan-Breslow-Wilcoxon tests were used for survival comparisons.

Consider `Cn1nnc2c(C(N)=O)ncn2c1=O` [temozolomide], for which the “median progression-free survival (PFS)” value turned out to be 1.6 months (CRC patients with MGMT levels above cutoff of 200 amol/μg) and 4.3 months (CRC patients with MGMT protein levels below cutoff of 200 amol/μg (n=11), p=0.0611 vs above cutoff). Besides, the “ratio of median progression-free survival, MGMT below cutoff vs above cutoff” value (cutoff 200 amol/μg, temozolomide-treated CRC patients) was “approximately 2.5 times”.
